{
  "source": "patent US20240390334A1",
  "about": "“COMPOSITIONS AND METHODS FOR MITIGATING ALCOHOL LIVER DISEASE” (Research Foundation of the City University of New York, priority 2021, published 2024)",
  "key": {"human RARβ2 receptors": {"target": "T1, human RARβ2 receptors (Homo sapiens, UniProt P10826)", "T1 sequence (P10826 1-448 isoform P10826-2)": "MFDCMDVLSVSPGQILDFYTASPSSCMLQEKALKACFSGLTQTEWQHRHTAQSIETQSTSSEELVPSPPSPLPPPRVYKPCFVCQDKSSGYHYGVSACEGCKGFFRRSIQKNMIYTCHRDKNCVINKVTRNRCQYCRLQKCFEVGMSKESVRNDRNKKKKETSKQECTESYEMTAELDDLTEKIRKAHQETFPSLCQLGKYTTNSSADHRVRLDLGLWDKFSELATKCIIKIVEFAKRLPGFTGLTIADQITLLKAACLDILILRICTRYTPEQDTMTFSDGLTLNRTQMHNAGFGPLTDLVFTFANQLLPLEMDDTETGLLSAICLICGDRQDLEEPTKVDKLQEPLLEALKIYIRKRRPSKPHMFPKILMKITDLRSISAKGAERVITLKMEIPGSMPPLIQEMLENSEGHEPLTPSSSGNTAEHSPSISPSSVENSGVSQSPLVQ", "details": "as described in Lund et al. (2005, J. Med. Chem., 48, 7517-7519); cited from earlier work"}, "CYP2E1": {"system": "CYP2E1", "assay": "Hepatic CYP2E1 protein by western blot and IHC in liquid ethanol diet model", "format": "in vivo, mouse (male C57BL/6J)", "details": "EtOH-AC261066 vs EtOH mice", "text": "(§1) Liquid Ethanol Diet. Male C57BL/6J mice (8-9-weeks-old) (n=30) were purchased from Jackson Laboratory. Animals were housed in standard cages with 2-mice per cage and fed a standard vivarium chow (rodent diet #2014, Harlan-Teklad, Madison, WI). After acclimation to liquid feeding, mice were switched to the Lieber-DeCarli-liquid alcohol diet for 3 weeks using the following groups: 1) Control diet-fed mice (aka Pair-fed (PF), n=6), 2) Pair-fed mice+RARβ2 specific agonist AC261066 (Tocris #4046), at 10 mg/kg/day [Pair-fed+AC261, (n=4)] (PF-AC), 3) Alcohol-treated (5% ethanol (EtOH) v/v plus vehicle [0.1% DMSO], n=10) (EtOH), and iv) 4) EtOH+AC261, [10 mg/kg/day], n=10)] (EtOH-AC).\n(§2) AC261066 and ethanol modulate centrilobular protein expression of ALDH1A1, CYP2E1, and Oxidative Stress. ALDH1A1 is one of the rate-limiting enzymes in the oxidation of retinaldehyde to RA and a key contributor to hepatic RA synthesis, as mice lacking ALDH1A1 show reduced hepatic levels of RA. […] Therefore, hepatic protein levels of ALDH1A1 were measured next, as it was the only ALDH1A isoform to increase in EtOH compared to PF mice. […] Therefore, given that high levels of ALDH1A1 were specifically detected only in zone 2-3, centrilobular regions, hepatic CYP2E1 protein levels were next measured by western blot and IHC, and by IHC, 4-HNE, as an indirect readout of oxidative stress. […]"}, "[1]": {"assay": "Tolerability and general observations (food intake, body weight, blood alcohol, hepatic drug level, hepatotoxicity, fibrosis) in liquid ethanol diet study", "format": "in vivo, mouse (male C57BL/6J)", "text": "as §1"}, "[2]": {"system": "genes involved in de novo lipogenesis and fatty acid β-oxidation", "assay": "RNA-seq of hepatic transcripts of lipid metabolism genes in liquid ethanol diet model", "format": "in vivo, mouse (male C57BL/6J)", "text": "as §1\nThe mechanism by which AC261066 functions in lipid metabolism, including de novo lipogenesis and fatty acid β-oxidation in the liver, was assessed."}, "4-HNE": {"system": "4-HNE", "assay": "Hepatic 4-HNE IHC (indirect readout of oxidative stress) in liquid ethanol diet model", "format": "in vivo, mouse (male C57BL/6J)", "details": "EtOH-AC261 vs EtOH mice", "text": "as §1, §2"}, "ethanol-fed mice [3]": {"system": "ethanol-fed mice", "assay": "Plasma AST and ALT activity (liver injury markers) in liquid ethanol diet model", "format": "in vivo, mouse (male C57BL/6J)", "details": "EtOH-AC261 vs EtOH mice; 10 mg/kg/day, 3 weeks", "text": "as §1"}, "ALDH1A1": {"system": "ALDH1A1", "assay": "Hepatic ALDH1A1 protein by western blot and IHC in liquid ethanol diet model", "format": "in vivo, mouse (male C57BL/6J)", "details": "EtOH-AC vs EtOH mice", "text": "as §1, §2"}, "ethanol-fed mice [4]": {"system": "ethanol-fed mice", "assay": "Hepatic steatosis (histopathology, Oil Red O, hepatic triglycerides) in Lieber-DeCarli liquid ethanol diet model of early ALD", "format": "in vivo, mouse (male C57BL/6J)", "details": "EtOH-AC261 vs EtOH mice, 10 mg/kg/day, 3 weeks", "text": "as §1"}, "[5]": {"details": "5% ETOH-fed mice with vs without AC261066"}, "[6]": {"details": "5% ETOH-fed plus AC261066 vs ETOH-fed mice without AC261066"}},
  "data": [
    {"smiles": "CCCCCCCCc1ccc(-c2ccc(C(=O)O)cc2)cc1", "note": "[AC55649]", "values": [
      {"measurement": "isoform selectivity of agonism at human RARβ2 receptors", "setting": "human RARβ2 receptors", "result": "highly isoform-selective agonists"}
    ]},
    {"smiles": "CCCCOCCOc1nc(-c2ccc(C(=O)O)c(F)c2)sc1C", "note": "[AC261066]", "values": [
      {"measurement": "reduction in zone 2-3 centrilobular CYP2E1 protein levels", "setting": "CYP2E1; IHC", "result": "~39", "unit": "%"},
      {"measurement": "reduction in hepatic CYP2E1 protein levels", "setting": "CYP2E1; total protein", "result": "approximately 31%"},
      {"measurement": "isoform selectivity of agonism at human RARβ2 receptors", "setting": "human RARβ2 receptors", "result": "highly isoform-selective agonists"},
      {"measurement": "changes to hepatic steatosis, triglyceride levels, fibrosis, or liver injury", "setting": "[1]; PF+AC261 mice (pair-fed, no ethanol), 10 mg/kg/day, 3 weeks", "result": "No evidence was found of changes"},
      {"measurement": "daily food intake and body weights", "setting": "[1]; all groups, entire length of the study", "result": "no group differences"},
      {"measurement": "hepatoxicity or fibrosis", "setting": "[1]; concomitant administration of AC261 with EtOH, 3 weeks", "result": "no evidence"},
      {"measurement": "effect of EtOH on hepatic AC261 levels", "setting": "[1]; concomitant administration with EtOH, 3 weeks", "result": "did not adversely impact"},
      {"measurement": "EtOH-induced increase in hepatic Fasn mRNA level", "setting": "[2]; [5]", "result": "eliminated or attenuated"},
      {"measurement": "EtOH-induced increase in hepatic Mogat1 mRNA level", "setting": "[2]; [5]", "result": "eliminated or attenuated"},
      {"measurement": "EtOH-induced increase in hepatic Pparg mRNA level", "setting": "[2]; [5]", "result": "eliminated or attenuated"},
      {"measurement": "hepatic CPT1-α transcripts", "setting": "[2]; [6]", "result": "increased"},
      {"measurement": "hepatic Ppara transcripts", "setting": "[2]; [6]", "result": "increased"},
      {"measurement": "decrease in hepatic levels of 4-HNE", "setting": "4-HNE", "result": 36, "unit": "%"},
      {"measurement": "decrease in hepatic levels of 4-HNE (first value)", "setting": "4-HNE", "result": 33, "unit": "%"},
      {"measurement": "reduction in plasma activity of ALT", "setting": "ethanol-fed mice [3]", "result": "~30", "unit": "%"},
      {"measurement": "reduction in plasma activity of AST", "setting": "ethanol-fed mice [3]", "result": "~30", "unit": "%"},
      {"measurement": "reduction in zone 2-3, centrilobular ALDH1A1 protein immunoreactivity", "setting": "ALDH1A1; IHC", "result": 40, "unit": "%"},
      {"measurement": "reduction in ALDH1A1 total protein", "setting": "ALDH1A1; western blot", "result": 32, "unit": "%"},
      {"measurement": "reduction in Oil red O lipid-staining", "setting": "ethanol-fed mice [4]", "result": 41, "unit": "%"},
      {"measurement": "reduction in hepatic triglycerides", "setting": "ethanol-fed mice [4]", "result": 35, "unit": "%"},
      {"measurement": "reduction in macrovesicular steatosis", "setting": "ethanol-fed mice [4]; 5% EtOH diet", "result": 72, "unit": "%"},
      {"measurement": "reduction in microvesicular steatosis", "setting": "ethanol-fed mice [4]; 5% EtOH diet", "result": 82, "unit": "%"}
    ]}
  ]
}
